For series [1], the target named is T1, tryptase enzyme (Homo sapiens, UniProt P20231).
T1 construct: purchased Millipore Inc., Westbury, Mass
Nature of the series: Tryptase enzyme inhibition (cleavage of tosyl-gly-pro-lys-pNA, absorbance at 405 nm). The format is biochemical. The settings on record: 2 h at 37° C.; relative to controls. Here is the method:
A. Tryptase Enzyme Inhibition
Tryptase activity was determined by monitoring the production of chromophore p-nitroaniline (pNA) generated by the cleavage of tosyl-gly-pro-lys-pNA by the tryptase enzyme according to the manufacturer's protocol (Millipore Inc., Westbury, Mass.). In a 96-well format, 10 μL of tryptase was added to 10 μL of sample, followed by 20 μL of tosyl-gly-pro-lys-pNA and 160 μL of 1× reaction buffer and incubated for 2 h at 37° C. After the incubation, absorbance at 405 nm was measured in each well using a Tecan M200 microplate reader.

Series [2] in a line: Pharmacokinetic analysis: serum and urine by DART TOF-MS after a 100 mg lozenge. The settings on record: humans. It counts as in vivo, human. Here is the method: Five healthy consenting female adults ranging in age from 23 to 57 were took diets free of flavonoids and any NSAIDs. A certified individual collected blood samples at several time intervals between 0 and 480 min after compounds of the present invention were ingested in a mixture. Immediately after the time zero blood samples were collected, a single 100 mg dose of the composition was administered as a lozenge. Blood samples were handled with approved protocols and precautions, centrifuged to remove cells and the serum fraction was collected and frozen. Blood was not treated with heparin to avoid any analytical interference. Urine samples were collected from the same five subjects on a time course (0 to 8 h). The cells were removed from the blood samples by centrifugation and the serum was collected. Serum samples were prepared for DART TOF-MS analysis by extraction with an equal volume of neat ethanol (USP) to minimize background of proteins, peptides, and polysaccharides present in serum. The ethanol extract was centrifuged for 10 min at 4° C., the supernatant was removed, concentrated to 200 μL volume, and 50 μL of an internal standard was added. Urine samples were not treated and used directly for DART TOF-MS. DART TOF-MS analyses were conducted as described above.

Where [3] appears, read: in a mixture, slow-dissolve lozenge.

Some results are limits rather than exact numbers.

T1 sequence (P20231 31-275): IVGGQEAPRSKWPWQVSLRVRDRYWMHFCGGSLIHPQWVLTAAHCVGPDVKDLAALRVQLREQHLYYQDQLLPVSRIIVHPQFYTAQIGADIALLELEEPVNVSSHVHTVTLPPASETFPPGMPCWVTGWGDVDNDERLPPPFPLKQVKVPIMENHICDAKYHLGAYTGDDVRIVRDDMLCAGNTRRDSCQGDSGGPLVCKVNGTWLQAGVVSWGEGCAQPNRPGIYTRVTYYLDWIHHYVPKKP

The molecule `CCCCCN(c1ccc(N)cc1)c1ccc(S)cc1.Cl` [III, 4-[(4-Amino-phenyl)-pentyl-amino]benzenethiol hydrochloride salt] displayed an IC50 in series [1] of 493 µM. Further, in series [2] (setting [3]), the “Time to appearance in urine” value is at most 1 h, the “Time to first appearance in bloodstream (serum)” value is at most 10 min, the “Time up to which present in the blood post-ingestion” value is on record as “up to 360 min” and the “Time up to which present in urine post-ingestion” value is listed as “up to 8 h”. For the same molecule, the “Detection in blood at 480 min after ingestion” value in series [2] (lozenge, 480 min) is “not detected”.

(Values after patent US20100113608A1, “Tryptase Enzyme Inhibiting Aminothiophenols” (priority 2008, published 2010).)
